{"source": "paper PMC12176268", "about": "“Structural Features and Photophysical and Antiproliferative Properties of Me2N‑pbt-Cycloplatinated Complexes with Picolinate Ligands” (Inorganic Chemistry, 2025)", "key": {"MDA-MB-231": {"system": "MDA-MB-231", "test": "MTT cell viability assay on MDA-MB-231 cells, dark and 450 nm irradiation", "assay_type": "cell-based, human", "details": "for EC50: MTT", "description": "(§1) (C∧N) cyclometalated Pt(II) complexes have been previously reported to have strong antiproliferative activities when associated with phenanthroline-based, diphosphine, acyclic diamino carbenes, or picolinate ligands. In particular, (Me2N-pbt)-cyclometalated platinum complexes have been previously reported by some of us to have antiproliferative properties in the micromolar range on a panel of cancer cell lines, prompting us to investigate the anticancer properties of complexes 1–4 in dark conditions and, considering their high quantum yield (ϕΔ) of ^1O2 generation, under irradiation conditions. Due to the poor solubility of the complexes in an aqueous environment, complexes 1–4 were first dissolved in DMSO and diluted in the culture media to reach a final concentration of 1% DMSO when incubated with the cells. All complexes were screened against the so-called “triple-negative” breast cancer cell line MDA-MB-231, lung adenocarcinoma cell line A549, and the noncancerous breast cell line MCF-10A for 72 h in dark conditions and under 5 min irradiation at 450 nm (see Experimental Section for details). The irradiation time was kept short to prevent light-induced toxicity of the energetic wavelength observed at longer irradiation times (data not shown). The measurement of the effective concentration at 50% (EC50) was carried out using the classical MTT assay, and the data are provided in Table .\n(§2) In dark conditions, we could notice a strong influence of substituents on the picolinate ligands. […] This can be correlated with its poor stability in the culture medium mentioned above, which might reduce its cellular uptake. […] However, in dark conditions, no particular selectivity for cancer cells could be observed with similar activity measured against the noncancerous cell line MCF-10A. For the “light” experiments, the cells were preincubated with the complexes for 4 h in the dark, irradiated at 450 nm for 5 min, and then put back in the dark until 72 h. The photoactivity index (PI) values, defined as the ratio between the EC50 in dark conditions and the EC50 after irradiation for each cell line, are shown in Figure .\n(§3) The human lung adenocarcinoma cell line A549 and human breast cancer cell line MDA-MB-231 were cultivated in DMEM (Dulbecco’s modified Eagle’s medium) containing GlutaMax I supplemented with 10% FBS at 37 °C in a humidified atmosphere and 5% CO2. The noncancerous cell line MCF-10A was maintained in DMEM:F12 (1:1) cell culture media, 5% heat-inactivated horse serum, supplemented with HEPES (20 mM), L-glutamine (2 mM), epidermal growth factor (20 ng/mL), hydrocortisone (500 ng/mL), cholera toxin (100 ng/mL), and insulin (10 μg/mL). Cell viability was evaluated by using a colorimetric method based on the tetrazolium salt MTT [3-(4,5-dimethylthiazol-2-yl)-2,5-diphenyltetrazolium bromide], which is reduced by viable cells to yield purple formazan crystals. Cells were seeded in 96-well plates at a density of 40000 cells/mL (100 μL per well). Stock solutions were prepared in DMSO for complexes 1–4 and in water for cisplatin. […] For dark experiments, after overnight attachment, a dilution series of the compounds was added to the medium, and the cells were incubated for a further 72 h. For the irradiated experiments, after overnight attachment, a dilution series of the compounds was added to the medium, and the cells were preincubated for 4 h. The cells were then irradiated at 450 nm for 5 min with a Kessil Lamp (power: 3 mW/cm^2, 1.13 × 10^–8 Einstein/s at 20 cm distance between the light source and 96-well plate) and the incubation was continued until 72 h. After 72 h, the medium was removed and the cells were incubated with MTT solution in PBS (10 μL of 5 mg/mL) for 2–3 h. The formed purple formazan crystals were dissolved in 100 μL of DMSO by thorough shaking, and the absorbance at 580 nm was read using a microplate reader (FLUOstar OPTIMA, BMG Labtech). Each test was performed with at least 3 replicates and repeated at least 3 times. […]"}, "A549": {"system": "A549", "test": "MTT cell viability assay on A549 cells, dark and 450 nm irradiation", "assay_type": "cell-based, human", "details": "for EC50: MTT", "description": "as §1, §2, §3"}, "MCF-10A": {"system": "MCF-10A", "test": "MTT cell viability assay on noncancerous MCF-10A cells, dark and 450 nm irradiation", "assay_type": "cell-based, human", "details": "for EC50: MTT", "description": "as §1, §2, §3"}, "[1]": {"test": "Stability in serum-free DMEM containing 5% DMSO by UV–vis", "assay_type": "physicochemical", "details": "DMEM with 5% DMSO, 25 μM, 37 °C", "description": "The stability of complexes 1–4 was then investigated in more biologically relevant media by UV–visible spectroscopy. First, the stability of the complexes was studied in phosphate-buffered saline (PBS) containing 5% DMSO (Figure S30). […] Only a decrease in the intensity of all bands was observed, which could be attributed to partial aggregation and/or precipitation. […] The stability of complexes 1–4 was next studied in serum-free DMEM cell culture containing 5% DMSO (Figure S31). […] This final species seemed to have spectral features similar to those observed for complex 4 (Figure S31A). […] The similarity of the spectral features of the transformed species in all cases seemed to point to the formation of a common species upon incubation in DMEM, which we tentatively attribute to the decoordination of the picolinate ligands with a substituent-dependent kinetics; the COOH group favored the release of the picolinate ligand, while both NH2 and OH substituents seemed to slow down this process.\nThe UV–vis spectra of complexes 1–4 were recorded in PBS:DMSO (95/5) and serum-free DMEM:DMSO (95/5) at a concentration of 25 μM on a Cary 50 spectrophotometer (Varian)."}}, "note": "Like-named read-outs stand apart in the source and are kept apart here."}
{"substance": "[Pt(Me2N-pbt)(3-OH-pic-κN,O)] [Complex 3]", "values": [{"measurement": "EC50", "setting": "MDA-MB-231; 4 h preincubation, 5 min irradiation at 450 nm, then dark until 72 h, read-out: EC50 MDA-MB-231 light", "value": "220 ± 30", "unit": "nM"}, {"measurement": "EC50", "setting": "MDA-MB-231; 72 h incubation at 37 °C, dark, read-out: EC50 MDA-MB-231 dark", "value": "2600 ± 800", "unit": "nM"}, {"measurement": "reduction of the antiproliferative activity relative to 1, MDA-MB-231", "setting": "MDA-MB-231; dark conditions", "value": "~5", "unit": "times"}, {"measurement": "lower activity toward MDA-MB-231 cells compared to the noncancerous cells", "setting": "MDA-MB-231; dark conditions, versus MCF-10A", "value": 2, "unit": "fold"}, {"measurement": "activity on MDA-MB-231 compared to the noncancerous cell line", "setting": "MDA-MB-231; upon irradiation (450 nm, 5 min), versus MCF-10A", "value": "twice as active"}, {"measurement": "photoactivity index (PI), EC50 dark / EC50 after irradiation, A549", "setting": "A549; 5 min irradiation at 450 nm", "value": 5.6}, {"measurement": "EC50", "setting": "A549; 4 h preincubation, 5 min irradiation at 450 nm, then dark until 72 h, read-out: EC50 A549 light", "value": "1100 ± 80", "unit": "nM"}, {"measurement": "EC50", "setting": "A549; 72 h incubation at 37 °C, dark, read-out: EC50 A549 dark", "value": "6100 ± 200", "unit": "nM"}, {"measurement": "reduction of the antiproliferative activity relative to 1, A549", "setting": "A549; dark conditions", "value": "~5", "unit": "times"}, {"measurement": "photoactivity index (PI), EC50 dark / EC50 after irradiation, MCF-10A", "setting": "MCF-10A; 5 min irradiation at 450 nm", "value": "< 2"}, {"measurement": "EC50", "setting": "MCF-10A; 4 h preincubation, 5 min irradiation at 450 nm, then dark until 72 h, read-out: EC50 MCF-10A light", "value": "520 ± 50", "unit": "nM"}, {"measurement": "EC50", "setting": "MCF-10A; 72 h incubation at 37 °C, dark, read-out: EC50 MCF-10A dark", "value": "1000 ± 200", "unit": "nM"}, {"measurement": "stability in serum-free DMEM, UV–vis spectral changes, 24 h", "setting": "[1]; 24 h", "value": "spectral features of both complexes changed"}, {"measurement": "stability in serum-free DMEM, UV–vis spectral changes, first 4 h", "setting": "[1]; first 4 h, dark or with 5 min irradiation at 450 nm", "value": "no spectral changes"}]}
